Laboratory results published in patent publication US9241954B2, “Lipopolysaccharide of ochrobactrum intermedium and their use as immunostimulant of mammalians” (LABORATORIOS OVEJERO, S.A., priority 2009, dated 2016).

Legend:
[1] = test system: severe sepsis patients; settings: cited from earlier work
[2] = test system: CD8 and CD4 T-cells (spleen cells)

Molecule | proinflammatory cytokine levels ([1]; human, in vivo) | mortality ([1]; severe sepsis patients (TAK-242: subgroup with high IL-6 levels)) | toxicity for CD8 and CD4 T-cells / spleen cells [2]
CCOC(=O)C1=CCCC[C@H]1S(=O)(=O)Nc1ccc(F)cc1Cl [TAK-242] | decrease proinflammatory cytokine levels | decrease mortality | –
Lipopolysaccharide from Ochrobactrum intermedium strain LMG3306 [IM] | – | – | no toxic at all
